For orientation: Km means the substrate concentration at which the rate is half of its maximum.

These results are taken from article PMC4744544 (Analytical biochemistry, 2015).

The target of one experiment is T1, Dgt (Escherichia coli, UniProt P15723).
T1 sequence (P15723 2-505): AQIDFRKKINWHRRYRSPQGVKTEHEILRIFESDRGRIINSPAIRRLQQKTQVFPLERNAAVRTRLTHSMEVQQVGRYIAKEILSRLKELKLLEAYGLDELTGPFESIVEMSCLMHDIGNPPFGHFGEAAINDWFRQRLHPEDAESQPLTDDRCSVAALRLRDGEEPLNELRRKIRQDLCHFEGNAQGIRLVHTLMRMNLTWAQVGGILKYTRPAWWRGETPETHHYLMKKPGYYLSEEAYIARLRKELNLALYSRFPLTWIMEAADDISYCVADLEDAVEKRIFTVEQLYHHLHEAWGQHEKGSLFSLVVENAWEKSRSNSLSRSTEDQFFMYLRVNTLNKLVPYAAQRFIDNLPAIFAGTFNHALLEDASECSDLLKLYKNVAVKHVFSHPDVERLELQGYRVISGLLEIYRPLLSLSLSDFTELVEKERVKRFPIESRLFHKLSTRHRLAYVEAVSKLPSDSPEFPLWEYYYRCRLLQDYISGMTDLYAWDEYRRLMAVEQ
Briefly: discontinuous HPLC of deoxyguanosine, Michaelis-Menten fit. It is filed as biochemical. The settings on record: 20 mM Tris-HCl pH 8.0; 5 mM MgCl2; 30 °C; Dgt 0.2 nM hexamer.

Experiment [1] concerns Purine Nucleoside Phosphorylase (PNPase; EC 2.4.2.1). Briefly: XOD-coupled absorbance at […] nm, initial velocities, Michaelis-Menten fit. It is filed as biochemical. The settings on record: 100 mM Tris-HCl pH 8; 5 mM KH2PO4; PNPase 50 mU/mL; XOD 500 mU/mL as coupling enzyme.

`Nc1nc2c(ncn2[C@H]2C[C@H](O)[C@@H](COP(=O)(O)OP(=O)(O)OP(=O)(O)O)O2)c(=O)[nH]1` [dGTP]: the Km entry on Dgt is reported as “the best fit to the data is a simple Michaelis-Menten curve”.

With `Nc1nc2c(ncn2[C@H]2C[C@H](O)[C@@H](CO)O2)c(=O)[nH]1` [deoxyguanosine], the Km in experiment [1] turned out to be 110 ± 13 µM.
